Structures can show the parent of a compound that is named as a salt.
Experiments:
trachea = assay: Effect on trachea in vivo: inhibition of histamine-induced tracheal contraction (modified Konzett-Rössler method); conditions: Cavia porcellus, iv, 0.05 h; compound 1 mg/kg through the femoral vein, histamine 20 µg/kg through the femoral vein 3 minutes later; anesthetized male guinea pigs; compounds used as hydrochloride; 3 animals per group; read-out: Inhibition of tracheal con-traction
Text: Further, the inhibiting action of the compound of the present invention on the histamine-induced contraction of the trachea of a guinea pig was examined by in vivo experiment. As a result, the in vivo bronchodilation action was confirmed.
According to a modified method of Konzett-Rössler method [see J. Martinez et al, Bronchial Arterial Injections, vol. 33, 295, (1961); Masaaki Takai et al, Oyo Yakuri (Applied Pharmacology), vol. 17, p.345, (1979)], effect of the compounds of the present invention on trachea in vivo was examined. Of compounds 3, 4, 30, 31, 36, 38, 48, 54 and 55, which were used herein, compounds other than acid addition salts were individually subjected to testing in the form of a hydrochloride which was obtained in the same manner as described in Example 61. Urethane was intraperitoneally administered to male guinea pigs weighing 350 to 600 g (Hartley strain, Kuroda Junkei Dobutsu) in an amount of 1.5 g/kg of body weight to anesthetize the animals. Then, cannulae were inserted into the trachea and femoral vein of each animal under urethane anesthesia and fixed. The inserted tracheal cannula was connected to a respirator for small animal (model 1683, manufactured by Harvard Co., Ltd.) and a pneumotachometer (model MHF-1200, manufactured by Nihon Kohden Corp.) through a bottle containing water, the water surface of which was adjusted to a level which is 10 cm high from the bottom, and a respiratory volume was determined.
Each of the above-mentioned compounds of the present invention was administered to guinea pigs through the femoral vein in an amount of 1 mg/kg of body weight. After 3 minutes from the administration, histamine was administered to the same guinea pigs through the femoral vein in an amount of 20 µg/kg of body weight, to thereby induce contraction of trachea and the inhibition of the histamine-induced tracheal contraction by each of the above-described compounds of the present invention was determined. For comparison, the inhibition of histamine-induced tracheal contraction by each of aminophylline, comparative compound (1) and comparative compound (2) was determined in substantially the same manner as described above. As a solvent for each compound, physiological saline was used. The number of the guinea pigs tested in each group was 3.

[1] = test system: tracheal specimens excised from guinea pigs; assay: Inhibitory effect on KCl-induced contraction of tracheal specimens excised from guinea pigs (Magnus tube); assay type: cell-based; conditions: Cavia porcellus; dose required for relaxing KCl-induced contraction to 50 %; final KCl concentration: 20 mM; 37 °C; compounds other than acid addition salts used as hydrochloride; 3 specimens per group; read-out: ED₅₀ Effect on KCl-induced contraction
Method: (§1) The bronchial smooth muscle-relaxing action of the sulfonamide derivative of the present invention was evaluated by the effect on suppression of KCl-induced contraction and PGF2α-induced contraction of bronchial specimens excised from guinea pigs.
According to a method in which tracheal specimens excised from guinea pigs were used (Takagi and Ozawa, "Yakubutsugaku Jikken (Experiments in Pharmacology)", pp.100-102, 1960, published by Nanzando Japan; and Fujiwara and Shibata, "Yakurigaku Kiso Jikenho (Methods of Fundamental Experiments in Pharmacology)" pp.131-134, 1982, published by Kyourin, Japan), relaxing effect of sulfonamide derivatives of the present invention on bronchial smooth muscle was examined. Of compounds (1) to (69) shown herein, compounds other than acid addition salts were individually used in the form of a hydrochloride which was obtained by the same method as described in Example 61.
From male guinea pigs weighing 350 to 500 g (Hartley strain, Kuroda Junkei Dobutsu), tracheas were excised and each of the excised tracheal specimens was hung in 20 ml of a Magnus tube filled with Krebs-Henseleit solution under isotonic conditions and the solution temperature was kept at 37 °C. An aqueous KCl solution was dropwise added into the Magnus tube (final KCl concentration: 20 mM) to contract the tracheal specimen. After the KCl-induced contraction became stable, each of the compounds of the present invention was dissolved in distilled water or physiological saline, and the compound solution was cumulatively added into the Magnus tube. The relaxing effect of each of the compounds of the present invention on contracted tracheal specimens was evaluated and a dose-response curve was obtained.
A dose required for relaxing KCl-induced contraction to 50 %, i.e., ED₅₀ was calculated from the dose-response curve. For comparison, the same method as described above was repeated except that aminophylline was used, to thereby determine an ED₅₀. The number of tracheal specimens in each group was 3.

[2] = test system: tracheal specimens excised from guinea pigs; assay: Inhibitory effect on PGF2α-induced contraction of tracheal specimens excised from guinea pigs (Magnus tube); assay type: cell-based; conditions: Cavia porcellus, dose required for relaxing PGF2α-induced contraction to 50 %; PGF2α final concentration: 1 µm; compounds used as hydrochloride; 3 specimens per group; read-out: PGF2α-induced contraction ED50
Method: as §1
Tracheal specimens excised from male guinea pigs weighing 350 to 500 g (Hartley strain, Kuroda Junkei Dobutsu) were contracted in substantially the same manner as in Application Example 1 except that PGF2α (final concentration: 1 µm) was used instead of KCl. After the contraction of the tracheal specimens became stable, each of the compounds (hydrochloride) of the present invention was dissolved in distilled water or physiological saline, and the compound solution was cumulatively added into the Magnus tube in the same manner as in Application Example 1. The relaxing effect of each of the compounds of the present invention on the contracted specimens was evaluated and a dose-response curve was obtained. The dose required for relaxing PGF2α-induced contraction to 50 %, i.e., ED₅₀ was calculated form the dose-response curve. Of compounds 3, 4, 30, 31, 36, 38, 48, 54 and 55, which were imdividually used herein, compounds other than acid addition salts were used in the form of a hydrochloride which was obtained in the same manner as described in Example 61. For comparison, the same procedure as described above was repeated except that aminophylline, comparative compound (1) and comparative compound (2) were individually used instead of the compound of the present invention, to obtain an ED₅₀. The number of specimens in each group was 3.

Structure (SMILES) | EC50 [1] [µM] | EC50 [2] [µM] | inhibition in vivo at 1 mg/kg (trachea) [%]
CCCCCCN(CCN)S(=O)(=O)c1cccc2cnccc12 [Comparative compound (1), N-(2-aminoethyl)-N-hexyl-5-isoquinolinesulfonamide hydrochloride, reference compound] |  | 101 | 9
NC1CCCN(S(=O)(=O)c2cccc3cnccc23)C1 (stereo not drawn) [Comparative compound (2), 1-(5-isoquinolinesulfonyl)-3-aminopiperidine hydrochloride, reference compound] |  | 93 | 12
Cn1c(=O)c2[nH]cnc2n(C)c1=O [Aminophylline, aminophylline, reference compound] |  | > 200 | 7
CCOc1ccc(S(=O)(=O)NCCN2CCCN(Cc3ccc4c(c3)OCO4)CC2)c2cccnc12 [(48), 1-(8-ethoxy-5-quinolinesulfonylaminoethyl)-4-(3,4-methylenedioxybenzyl)homopiperazine] | 37 | 82 | 33

Molecules with a lower EC50 [2], results first:

EC50 [1] [µM] | EC50 [2] [µM] | Structure (SMILES) | inhibition in vivo at 1 mg/kg (trachea) [%]
45 | 71 | CCOc1ccc(S(=O)(=O)N2CCCNCC2)c2cccnc12 [(55), 1-(8-ethoxy-5-quinolinesulfonyl)homopiperazine] | 23
5.2 | 23 | O=S(=O)(NCCNCc1ccc2c(c1)OCO2)c1cccc2cnccc12 [(3), N-[2(3,4-methylenedioxybenzylamino)ethyl]-5-isoquinolinesulfonamide] | 36
38 | 65 | O=S(=O)(c1ccc(Cl)c2ncccc12)N1CCCNCC1 [(54), 1-(8-chloro-5-quinolinesulfonyl)homopiperazine] | 30
10 | 5 | O=S(=O)(NCCNCc1ccc2c(c1)OCO2)c1cccc2c(O)nccc12 [(4), N-[2-(3,4-methylenedioxybenzylamino)ethyl]-1-hydroxy-5-isoquinolinesulfonamide hydrochloride] | 25

Reference: EP0471841A1, “SULFONAMIDE DERIVATIVE AND PHARMACEUTICAL COMPOSITION CONTAINING THE SAME” (Asahi Kasei Kogyo Kabushiki Kaisha, priority 1990, dated 1991)
